Results reported in ChEMBL document CHEMBL3044986, “Synthesis of 1-(4-aminosulfonylphenyl)-3,5-diarylpyrazoline derivatives as potent antiinflammatory and antimicrobial agents” (2012).
Converted amounts (≈) assume the structure as drawn. The source made the active and inactive calls. The calls are words filed in the database; no cut-off is given here.

How the values were obtained:
[1] = system: Candida albicans; test: Antifungal activity against Candida albicans MTCC 227 after 24 hr by modified agar well diffusion assay; type: functional
[2] = system: Rattus norvegicus; test: Anti-inflammatory activity in Rattus norvegicus Wistar albino (rat) assessed as inhibition of carrageenan-induced paw edema at 50 mg/kg, po administered 30 min prior to carrageenan-challenge measured at 3 hr by plethysmometric analysis relative to control; type: functional
[3] = system: Saccharomyces cerevisiae; test: Antifungal activity against Saccharomyces cerevisiae MTCC 170 at 4 mg/ml after 24 hr by agar well diffusion assay; type: functional; settings: for zone of inhibition at 4000 µg/mL: MTCC 170, 24 h, read-out: DIZ
[4] = system: Escherichia coli; test: Antibacterial activity against Escherichia coli MTCC 1652 at 4 mg/ml after 24 hr by agar well diffusion assay; type: functional, organism-based
[5] = system: Saccharomyces cerevisiae; test: Antifungal activity against Saccharomyces cerevisiae MTCC 170 after 24 hr by modified agar well diffusion assay; type: functional
[6] = system: Pseudomonas aeruginosa; test: Antibacterial activity against Pseudomonas aeruginosa MTCC 741 at 4 mg/ml after 24 hr by agar well diffusion assay; type: functional, organism-based
[7] = system: Rattus norvegicus; test: Anti-inflammatory activity in Rattus norvegicus Wistar albino (rat) assessed as inhibition of carrageenan-induced paw edema at 50 mg/kg, po administered 30 min prior to carrageenan-challenge measured at 1 hr by plethysmometric analysis relative to control; type: functional
[8] = system: Bacillus subtilis; test: Antibacterial activity against Bacillus subtilis MTCC 121 after 24 hr by modified agar well diffusion assay; type: functional; settings: MTCC 121, 24 h
[9] = system: Staphylococcus aureus; test: Antibacterial activity against Staphylococcus aureus MTCC 96 after 24 hr by modified agar well diffusion assay; type: functional; settings: MTCC 96, 24 h
[10] = system: Rattus norvegicus; test: Anti-inflammatory activity in Rattus norvegicus Wistar albino (rat) assessed as inhibition of carrageenan-induced paw edema at 50 mg/kg, po administered 30 min prior to carrageenan-challenge measured at 4 hr by plethysmometric analysis relative to control; type: functional
[11] = system: Candida albicans; test: Antifungal activity against Candida albicans MTCC 227 at 4 mg/ml after 24 hr by agar well diffusion assay; type: functional; settings: for zone of inhibition at 4000 µg/mL: MTCC 227, 24 h, read-out: DIZ
[12] = system: Rattus norvegicus; test: Anti-inflammatory activity in Rattus norvegicus Wistar albino (rat) assessed as inhibition of carrageenan-induced paw edema at 50 mg/kg, po administered 30 min prior to carrageenan-challenge measured at 2 hr by plethysmometric analysis relative to control; type: functional
[13] = system: Bacillus subtilis; test: Antibacterial activity against Bacillus subtilis MTCC 121 at 4 mg/ml after 24 hr by agar well diffusion assay; type: functional; settings: MTCC 121, 24 h, read-out: DIZ
[14] = system: Staphylococcus aureus; test: Antibacterial activity against Staphylococcus aureus MTCC 96 at 4 mg/ml after 24 hr by agar well diffusion assay; type: functional; settings: MTCC 96, 24 h, read-out: DIZ

Structure (SMILES) | MIC ([1]; MTCC 227, 24 h) [µg/mL] | inhibition in vivo at 50 mg/kg [2] [%] | zone of inhibition at 4000 µg/mL [3] [mm] | Activity [4] | MIC ([5]; MTCC 170, 24 h) [µg/mL] | Activity [6] | inhibition in vivo at 50 mg/kg [7] [%] | MIC [8] [µg/mL] | MIC [9] [µg/mL] | inhibition in vivo at 50 mg/kg [10] [%] | zone of inhibition at 4000 µg/mL [11] [mm] | inhibition in vivo at 50 mg/kg [12] [%] | zone of inhibition at 4000 µg/mL [13] [mm] | zone of inhibition at 4000 µg/mL [14] [mm] | MIC [1] | diameter of the inhibition zone (DIZ) [3] | MIC [5] | diameter of the inhibition zone (DIZ) [11]
COc1cc(OC)cc(C2CC(c3ccc(Cl)cc3)=NN2c2ccc(S(N)(=O)=O)cc2)c1 (stereo not drawn) | > 256 | 46.1 | 16.3 | inactive | 64 (≈ 136 µM) | inactive | 11.6 | > 256 | > 256 | 46.4 | 12.6 | 26.8 | 13.6 | 12 |  |  |  | 
COc1cccc(C2CC(c3ccc(Cl)cc3)=NN2c2ccc(S(N)(=O)=O)cc2)c1OC (stereo not drawn) | 64 (≈ 136 µM) | 46.1 | 17.3 | inactive | 32 (≈ 67.8 µM) | inactive | 18.8 | 128 (≈ 271 µM) | 256 (≈ 542 µM) | 27.8 | 15.3 | 35.4 | 15 | 13.6 |  |  |  | 
C[C@@H]1[C@H](O)[C@@H](C)/C=C/C=C/C=C/C=C/C=C/C=C/C=C/[C@H](O[C@@H]2O[C@H](C)[C@@H](O)[C@H](N)[C@@H]2O)C[C@@H]2O[C@](O)(C[C@@H](O)C[C@@H](O)[C@H](O)CC[C@@H](O)C[C@@H](O)CC(=O)O[C@H]1C)C[C@H](O)[C@H]2C(=O)O [AMPHOTERICIN B] | 100 (≈ 108 µM) |  | 13.6 |  | 100 (≈ 108 µM) |  |  |  |  |  | 14.3 |  |  |  |  |  |  | 
COc1cc(OC)cc(C2CC(c3ccc(OC)cc3O)=NN2c2ccc(S(N)(=O)=O)cc2)c1 (stereo not drawn) |  | 62.8 |  | inactive |  | inactive | 31.9 | 256 (≈ 529 µM) | 256 (≈ 529 µM) | 50 |  | 57.5 | 14.3 | 13.3 | inactive | inactive | inactive | inactive
COc1ccc(C2=NN(c3ccc(S(N)(=O)=O)cc3)C(c3ccc(OC)cc3OC)C2)c(O)c1 (stereo not drawn) |  | 40.6 |  | inactive |  | inactive | 33.3 | 64 (≈ 132 µM) | 128 (≈ 265 µM) | 37.1 |  | 16.5 | 18.6 | 15.6 | inactive | inactive | inactive | inactive
COc1cc(OC)cc(C2CC(c3ccc(F)cc3)=NN2c2ccc(S(N)(=O)=O)cc2)c1 (stereo not drawn) |  | 51.1 |  | inactive |  | inactive | 49.3 | 256 (≈ 562 µM) | > 256 | 50 |  | 33.1 | 13.6 | 12.6 | inactive | inactive | inactive | inactive
COc1ccc(C2=NN(c3ccc(S(N)(=O)=O)cc3)C(c3cccc(OC)c3OC)C2)c(O)c1 (stereo not drawn) | 128 (≈ 265 µM) | 45 | 15.6 | inactive | 64 (≈ 132 µM) | inactive | 47.8 | 32 (≈ 66.2 µM) | 64 (≈ 132 µM) | 43.8 | 14.3 | 25.2 | 20.6 | 18.6 |  |  |  | 
COc1ccc(OC)c(C2CC(c3ccc(Cl)cc3)=NN2c2ccc(S(N)(=O)=O)cc2)c1 (stereo not drawn) | 128 (≈ 271 µM) | 58.9 | 17.6 | inactive | 32 (≈ 67.8 µM) | inactive | 14.5 | 64 (≈ 136 µM) | 128 (≈ 271 µM) | 45.4 | 14.3 | 48.8 | 18.6 | 15.3 |  |  |  | 
COc1ccc(C2CC(c3ccc(F)cc3)=NN2c2ccc(S(N)(=O)=O)cc2)cc1OC (stereo not drawn) |  | 62.8 |  | inactive |  | inactive | 62.3 | 128 (≈ 281 µM) | 256 (≈ 562 µM) | 53.1 |  | 53.5 | 15.3 | 14 | inactive | inactive | inactive | inactive
COc1ccc(C2CC(c3ccc(F)cc3)=NN2c2ccc(S(N)(=O)=O)cc2)c(OC)c1 (stereo not drawn) |  | 47.7 |  | inactive |  | inactive | 63.7 | 128 (≈ 281 µM) | 128 (≈ 281 µM) | 47.9 |  | 35.4 | 16.3 | 15.3 | inactive | inactive | inactive | inactive
O=C(O)c1cn(C2CC2)c2cc(N3CCNCC3)c(F)cc2c1=O [CIPROFLOXACIN] |  |  |  |  |  |  |  | 5 (≈ 15.1 µM) | 5 (≈ 15.1 µM) |  |  |  | 24 | 26.6 |  |  |  | 
COc1ccc(OC)c(C2CC(c3ccc(F)cc3)=NN2c2ccc(S(N)(=O)=O)cc2)c1 (stereo not drawn) |  | 48.3 |  | inactive |  | inactive | 50.7 | 128 (≈ 281 µM) | 256 (≈ 562 µM) | 41.7 |  | 30.7 | 15 | 13.6 | inactive | inactive | inactive | inactive
